The target of the first test is T1, HYAL (bovine testis hyaluronidase) (Bos taurus, UniProt Q2YDK3).
T1 construct: gene SPAM1; commercial native preparation from bovine testis (Merck)
T1 sequence (Q2YDK3 36-553): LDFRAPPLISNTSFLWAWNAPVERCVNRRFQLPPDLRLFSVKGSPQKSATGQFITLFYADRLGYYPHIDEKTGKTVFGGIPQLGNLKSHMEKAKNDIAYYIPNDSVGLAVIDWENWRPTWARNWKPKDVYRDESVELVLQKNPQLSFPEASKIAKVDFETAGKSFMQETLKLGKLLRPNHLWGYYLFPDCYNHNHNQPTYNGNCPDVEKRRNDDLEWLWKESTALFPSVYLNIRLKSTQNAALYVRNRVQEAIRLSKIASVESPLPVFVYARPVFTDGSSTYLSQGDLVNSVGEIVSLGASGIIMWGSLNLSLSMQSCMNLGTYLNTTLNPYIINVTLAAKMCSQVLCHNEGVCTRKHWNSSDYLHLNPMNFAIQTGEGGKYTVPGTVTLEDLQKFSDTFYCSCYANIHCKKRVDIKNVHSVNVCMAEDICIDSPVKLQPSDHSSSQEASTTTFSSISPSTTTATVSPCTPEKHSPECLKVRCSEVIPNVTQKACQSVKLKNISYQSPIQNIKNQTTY
The experiment in a line: hyaluronidase inhibition assay. As to conditions: positive control; read-out: Anti-Inflammatory Activity / HYAL / IC50 (μM) ^a. Format: biochemical. An excerpt:
hyaluronidase inhibition assay on HYAL (bovine testis hyaluronidase)
For `C[C@@H]1C[C@H]2[C@@H]3CCC4=CC(=O)C=C[C@]4(C)[C@@]3(F)[C@@H](O)C[C@]2(C)[C@@]1(O)C(=O)CO` [DEX, dexamethasone, reference compound], the IC50 was 36.1 ± 2.68 µM. The same measure, in the same setting: for `COc1ccc2c(c1)c(CC(=O)O)c(C)n2C(=O)c1ccc(Cl)cc1` [IND, indomethacin, reference compound] the value was 35.7 ± 5.34 µM.

The test is the same for the next values; noted with them: tested at […]; read-out: Anti-Inflammatory Activity / HYAL / IC50 (μM) ^a.
In the case of `O=C(/C=C/c1ccc(O)c(O)c1)O[C@@H]1C[C@](O)(C(=O)O)C[C@@H](O)[C@H]1O` [CHA, 5-O-caffeoylquinic acid], the IC50 worked out at 80.7 ± 3.42 µM. With `O=C(O)[C@H]1O[C@@H](Oc2c(-c3ccc(O)c(O)c3)oc3cc(O)cc(O)c3c2=O)[C@H](O[C@@H]2OC[C@@H](O)[C@H](O)[C@H]2O)[C@@H](O)[C@@H]1O` [DGQ, quercetin 3-O-β-D-xylopyranosyl-(1→2)-β-D-glucuronopyranoside], the IC50 was 98.1 ± 2.31 µM. Still for that read-out and setting: in the case of `Oc1cc(O)c2c(c1)O[C@H](c1ccc(O)c(O)c1)[C@H](O)C2` [ECA, (−)-epicatechin] it was 81.9 ± 3.96 µM; in that of `COC(=O)c1ccccc1O[C@@H]1O[C@H](CO[C@@H]2OC[C@@H](O)[C@H](O)[C@H]2O)[C@@H](O)[C@H](O)[C@H]1O` [GT, methyl salicylate 2-O-β-D-xylopyranosyl-(1→6)-β-D-glucuronopyranoside], 64 ± 2.87 µM. Turning to `O=C(O)[C@H]1O[C@@H](Oc2c(-c3ccc(O)c(O)c3)oc3cc(O)cc(O)c3c2=O)[C@H](O)[C@@H](O)[C@@H]1O` [MQ, quercetin 3-O-β-D-glucuronopyranoside], the IC50 is 98.2 ± 4.41 µM. On the same count and under the same terms, for `Oc1cc(O)c2c(c1)O[C@H](c1ccc(O)c(O)c1)[C@H](O)[C@H]2c1c(O)cc(O)c2c1O[C@H](c1ccc(O)c(O)c1)[C@H](O)C2` [PB2, epicatechin-(4β→8)-epicatechin] the value was 37.4 ± 1.78 µM. On the same count and under the same terms, for `O=c1c(O)c(-c2ccc(O)c(O)c2)oc2cc(O)cc(O)c12` [QU, quercetin] the value was 102 ± 6.09 µM.

The values are drawn from paper PMC8583782, “Screening for the Active Anti-Inflammatory and Antioxidant Polyphenols of Gaultheria procumbens and Their Application for Standardisation: From Identification through Cellular Studies to Quantitative Determination” (International Journal of Molecular Sciences, 2021).
